{"source": "patent US8377489B2", "about": "“Banana treatments” (Rohm and Haas Company, priority 2008, dated 2013)", "system": "Banana fruit", "assay": "Ripening of bananas after 1-MCP dip of varied duration and ethylene exposure (Comparative Example 1)", "format": "in vivo, Musa", "conditions": "20 microgram 1-MCP per liter with 0.6 ml/l NuFilm 17; for peel colour after 12 days: 12 days after exposure to ethylene", "source_text": "The following Examples, the color of banana peels is rated according to a seven stage rating scale, published by Chiquita Brands International, Inc. (http://www.chiquita.com/chiquita/Discover/cbripen.asp): stage 1 (dark green); stage 2 (all light green); stage 3 (more green than yellow); stage 4 (more yellow than green); stage 5 (green tips and necks); stage 6 (all yellow; maybe light green necks, no green tips); stage 7 (yellow flecked with brown). Consumers generally prefer to eat bananas in stage 5 or stage 6.\nBanana fruit with an age of 12 weeks, grown and treated in Costa Rica. The bananas were dipped (not sprayed). The solution of every 1-MCP treatment included 0.6 ml/l NuFilm 17® 96% (elastomer-forming additive, Miller Chemical and Fertilizer Co.). Control sample had no dip. Other samples were dipped in water solution in which powdered encapsulation complex of 1-MCP in alpha-cyclodextrin was added to water to give concentration of 20 microgram 1-MCP per liter. Bananas were dipped for zero time (in and out), 5 minutes, or 20 minutes.\nAfter 1-MCP treatment, fruit were allowed to dry on racks after treatments before being repacked in the boxes. The boxes were stored at 14° C. for 7 days. The boxes were conditioned at 20-21° C. for 6 hours before being treated with a continuous stream of 100 microliter per liter ethylene in a treatment chamber at 20° C. by 24 hours. After ethylene treatment the boxes were kept at ambient conditions (20° C. and 95% RH). Bananas were inspected at 5, 7, 10, and 12 days after exposure to ethylene.\nComplete randomized design was used, with 4 treatments and 2 boxes per treatment. Clusters from each treatment were evaluated every two days after ethylene treatment."}
{"compound": "CC1=CC1", "note": "[Treatment 1-MCP, 1-methylcyclopropene]", "values": [{"measurement": "ripening", "setting": "dipped for 5 minutes", "value": "did not ripen normally"}, {"measurement": "peel colour after 12 days", "setting": "dipped for 5 minutes", "value": "remained green"}, {"measurement": "ripening", "setting": "dipped for 20 minutes", "value": "did not ripen normally"}, {"measurement": "peel colour after 12 days", "setting": "dipped for 20 minutes", "value": "remained green"}, {"measurement": "difference in ripening versus control bananas", "setting": "dipped in and out quickly (zero time)", "value": "No significant difference"}]}
